Drawing on PubChem BioAssay (NCI), this text covers TGI and GI50 for 13 molecules.

Each structure is given as a SMILES string.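 1) Cells in 96-well plates. 2) Compound, 48 h, 5 concentrations. 3) Linear interpolation between surrounding doses. 4) Unreached endpoint = highest concentration. GI50 = concentration required for 50% inhibition of growth. TGI: concentration producing complete growth inhibition.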

Holding throughout (test): NCI anticancer screen, dose series, 48 h
Assay [1] concerns UACC-257 melanoma.
Assay [2] has as its system HOP-62 NSCLC.
The subject of assay [3] is HCT-116 colon.
Assay [4] relates to PC-3 prostate.
Assay [5] concerns HCC-2998 colon.
Assay [6] deals with HOP-92 NSCLC.
Assay [7] relates to SK-MEL-2 melanoma.
The test system of assay [8] is HL-60(TB) leukemia.
The subject of assay [9] is 786-0 renal.
Assay [10] concerns A498 renal.

For the molecule `Cc1ccc(S(=O)(=O)N/N=C/C(=C/c2ccc(Cl)cc2)CC(/C=N/NS(=O)(=O)c2ccc(C)cc2)=C\c2ccc(Cl)cc2)cc1`, the TGI amounted to 63.6 µM in assay [1]; 70.8 µM in [2]; 18.9 µM in assay [3]; 24 µM in assay [4]; 8.98 µM in assay [5]; 12.4 µM in assay [6]. Besides, the TGI in [7] is 24.9 µM; in assay [8] it was 8.15 µM; in [9], 4.38 µM; in assay [10], 29 µM.
Regarding `O=C(O)/C=N\Nc1nc2ccccc2[nH]1`, the TGI in [1], in assay [2], in assay [3], in assay [4], in assay [5] and in assay [6] was over 100 µM throughout. Also, the TGI in assay [7], in [8], in assay [9] and in [10] was over 100 µM in each case.
In the case of `CCC(C)(C)/C(CC(O)(C(F)(F)F)C(F)(F)F)=N\O`, the TGI in [2], in [3], in [4], in [5], in [6] and in [7] was over 100 µM throughout. For the same molecule, the TGI in assay [8], in assay [9] and in assay [10] was over 100 µM throughout.
Regarding `COc1ccc(C2CC(c3cccc(Nc4ccncc4)c3)=NN2c2cc(Cl)cc(Cl)c2)cc1` (configuration not stated), the GI50 was 2.16 µM in [1]; 2.08 µM in assay [2]; 1.54 µM in [4]; 1.47 µM in assay [5]; 1.25 µM in assay [6]; 2.36 µM in [7]. In addition, the GI50 was 2.17 µM in assay [8] and 3.06 µM in assay [10]. For the same molecule, the TGI in [1] came out at 4.92 µM; in [2], 4.66 µM; in assay [4], 3.16 µM; in assay [5], 2.85 µM; in [6] it was 2.67 µM; in assay [7], 5.02 µM. Also, the TGI worked out at 5.12 µM in assay [8] and 18 µM in assay [10].
In the case of `CC[N+](CC)(CCNCC(N)=O)CC(N)=O`, the TGI in assay [1], in [2], in [3], in assay [4], in assay [5] and in assay [6] was over 10 µM throughout. The TGI in assay [7], in assay [8], in assay [9] and in [10] was over 10 µM throughout.
As to `CC(=O)c1c2c(cc3c1CC1(Cc4ccccc4C1=O)C3)CCC2` (configuration not stated), the TGI was 64.6 µM in [1]; over 100 µM in assay [2]; 66.6 µM in assay [3]; over 100 µM in assay [4]; over 100 µM in [5]; 49.5 µM in assay [6]. In addition, the TGI is 92 µM in [7], 33.7 µM in [8], 95.9 µM in assay [9] and over 100 µM in [10].
`CC(C)C1OC23CCCCC2C(C#N)(C#N)C1(C#N)C(=N)O3` (configuration not stated): the TGI in assay [1] was 45.9 µM; in [3] it was 39.8 µM; in assay [4], over 100 µM; in assay [5], 29.6 µM; in [6], 35.1 µM; in assay [7], 76 µM. The TGI is 30.8 µM in assay [8], 34.4 µM in [9] and 60 µM in [10].
As to `CCOC(=O)C1(Cc2ccc3c(c2)CCC3)Cc2cc3c(cc2C1)CCC3`, the TGI in [1] is 86.2 µM; in assay [2] it was over 100 µM; in assay [3], over 100 µM; in assay [4], over 100 µM; in assay [5], 64.4 µM; in assay [7] it was over 100 µM. Further, the TGI in assay [8], in assay [9] and in [10] was over 100 µM in each case.
With `O=[N+]([O-])c1ccc(/C=N/n2c(CO)nc3ccccc32)o1`, the TGI in assay [1] was determined as 6.25 µM; in assay [2], 28.7 µM; in assay [3] it was 7.86 µM; in [4] it was 26.1 µM; in assay [6], 14.8 µM; in [7], 24.1 µM. Besides, the TGI in assay [8] is 9.41 µM; in [9], 17.9 µM; in assay [10], 32.4 µM.
As to `CC(=O)n1nc(-c2ccccc2)n(/N=C/c2ccc([N+](=O)[O-])cc2)c1=O`, the TGI in [1], in [3], in assay [4], in assay [5], in [6] and in [7] was over 100 µM throughout. Also, the TGI in assay [8], in assay [9] and in assay [10] was over 100 µM throughout.
Turning to `CNc1ccc(OC)cc1S(=O)(=O)c1ccccc1[N+](=O)[O-]`, the TGI in [2], in [3], in [4], in assay [5], in assay [7] and in assay [8] was over 100 µM throughout. For the same molecule, the TGI in assay [9] and in assay [10] was over 100 µM throughout.
As to `C=CC(Br)(CBr)CCC(Cl)C(C)C` (configuration not stated), the TGI in assay [1] was found to be 5.97 µM; in [2], 3.2 µM; in [3] it was 12 µM; in [4] it was 14.1 µM; in assay [5] it was 1.52 µM; in [6], 4.72 µM. In addition, the TGI was found to be 3.92 µM in assay [7], 2.38 µM in assay [8] and 27 µM in [10].
As for `COc1cc(Nc2cnc3cc(F)c(F)cc3n2)cc(OC)c1OC`, the TGI in assay [1], in [2], in [3], in assay [4], in [6] and in assay [7] was over 100 µM in each case. Moreover, the TGI in assay [8], in assay [9] and in assay [10] was over 100 µM each time.
